According to patent US4147861A, “1N-(α-Hydroxy-ω-aminoalkanoyl)- 6'N-methyl-3',4'-dideoxykanamycin B and the production thereof” (Zaidan Hojin Biseibutsu Kagaku Kenkyu Kai, priority 1977, dated 1979):
Converted amounts (≈) assume the structure as drawn. Like-named read-outs stand apart in the source and are kept apart here.

Experiments:
[1] = test system: kanamycin-resistant bacteria; details: prior art statement; cited from earlier work
[2] = test system: Bacillus subtilis NRRL B-558; experiment: Minimum inhibitory concentration, serial dilution method on nutrient agar; type: cell-based; details: NRRLB558, 37° C., 18 hours, read-out: Minimum Inhibitory Concentrations
[3] = test system: Escherichia coli LA290 R64; experiment: as above; type: cell-based; details: LA290R64, 18 h, read-out: Minimum Inhibitory Concentrations
[4] = test system: Salmonella enteritidis 1891; experiment: as above; type: cell-based; details: Salmonella enterica; Salmonella enteritidis 1891; 37° C., 18 hours; read-out: Minimum Inhibitory Concentrations
[5] = test system: Escherichia coli LA290 R55; experiment: as above; type: cell-based; details: LA290R55, 18 h, read-out: Minimum Inhibitory Concentrations
Escherichia coli K-12 = experiment: as above; type: cell-based; details: K12; Escherichia coli K-12; 37° C., 18 hours; read-out: Minimum Inhibitory Concentrations
Sarcina lutea PCI 1001 = experiment: as above; type: cell-based; details: Micrococcus luteus, read-out: Minimum Inhibitory Concentrations
Escherichia coli K-12 R5 = experiment: as above; type: cell-based; details: K12R5, 18 h, read-out: Minimum Inhibitory Concentrations
Salmonella typhosa T-63 = experiment: as above; type: cell-based; details: Salmonella enterica, 18 h, read-out: Minimum Inhibitory Concentrations
[6] = test system: Shigella dysenteriae JS 11910; experiment: as above; type: cell-based; details: JS11910, 18 h, read-out: Minimum Inhibitory Concentrations
[7] = test system: Escherichia coli K-12 ML 1629; experiment: as above; type: cell-based; details: K12ML1629; Escherichia coli K-12 ML 1629; 37° C., 18 hours; read-out: Minimum Inhibitory Concentrations
[8] = test system: Bacillus cereus ATCC 10702; experiment: as above; type: cell-based; details: read-out: Minimum Inhibitory Concentrations
[9] = test system: Staphylococcus aureus FDA 209P; experiment: as above; type: cell-based; details: FDA209P, 37° C., 18 hours, read-out: Minimum Inhibitory Concentrations
Proteus vulgaris OX 19 = experiment: as above; type: cell-based; details: OX19; Proteus vulgaris OX 19; 37° C., 18 hours; read-out: Minimum Inhibitory Concentrations
Bacillus anthracis = experiment: microbe, parasite or virus in culture; type: cell-based; details: 18 h, read-out: Minimum Inhibitory Concentrations
[10] = test system: Staphylococcus aureus Terajima; experiment: Minimum inhibitory concentration, serial dilution method on nutrient agar; type: cell-based; details: 37° C., 18 hours, read-out: Minimum Inhibitory Concentrations
Staphylococcus aureus = experiment: as above; type: cell-based; details: 37° C., 18 hours, read-out: Minimum Inhibitory Concentrations
[11] = test system: Pseudomonas aeruginosa No. 12; experiment: as above; type: cell-based; details: read-out: Minimum Inhibitory Concentrations
[12] = test system: Pseudomonas aeruginosa 99; experiment: as above; type: cell-based; details: 37° C., 18 hours, read-out: Minimum Inhibitory Concentrations
[13] = test system: Escherichia coli JR66/W677; experiment: as above; type: cell-based; details: read-out: Minimum Inhibitory Concentrations
[14] = test system: Mycobacterium smegmatis ATCC 607; experiment: as above; type: cell-based; details: Mycolicibacterium smegmatis, ATCC607, 37° C., 18 hours, read-out: Minimum Inhibitory Concentrations
Escherichia coli W677 = experiment: as above; type: cell-based; details: Escherichia coli W677; 37° C., 18 hours; read-out: Minimum Inhibitory Concentrations
[15] = test system: Pseudomonas aeruginosa TI-13; experiment: as above; type: cell-based; details: read-out: Minimum Inhibitory Concentrations
[16] = test system: Escherichia coli LA290 R56; experiment: as above; type: cell-based; details: LA290R56, 18 h, read-out: Minimum Inhibitory Concentrations
[17] = test system: Pseudomonas aeruginosa GN315; experiment: as above; type: cell-based; details: read-out: Minimum Inhibitory Concentrations
[18] = test system: Klebsiella pneumoniae PCT 602; experiment: as above; type: cell-based; details: PCT602; Klebsiella pneumoniae PCT 602; 37° C., 18 hours; read-out: Minimum Inhibitory Concentrations
[19] = test system: Escherichia coli K-12 ML 1410; experiment: as above; type: cell-based; details: K12ML1410; Escherichia coli K-12 ML 1410; 37° C., 18 hours; read-out: Minimum Inhibitory Concentrations
Escherichia coli NIHJ = experiment: as above; type: cell-based; details: Escherichia coli NIHJ; 37° C., 18 hours; read-out: Minimum Inhibitory Concentrations
Shigella sonnei JS 11746 = experiment: as above; type: cell-based; details: JS11746, 37° C., 18 hours, read-out: Minimum Inhibitory Concentrations
Experimental: (§1) The minimum inhibitory concentrations (mcg./ml.) of 1N-(DL-isoseryl)-6'N-methyl-3',4'-dideoxykanamycin B (abbreviated as DL-IS-MDKB); 1N-(L-isoseryl)-6'N-methyl-3',4'-dideoxykanamycin B (abbreviated as L-IS-MDKB); 1N-(L-4-amino-[…])-6'N-methyl-3',4'-dideoxykanamycin B (abbreviated as AHB-MDKB); and 1N-(L-5-amino-2-hydroxyvaleryl)-6'N-methyl-3',4'-dideoxykanamycin B (abbreviated as AHV-MDBK) against various organisms were determined according to serial dilution method using nutrient agar medium at 37° C., the readings being made after 18 hours incubation. For the comparison purpose, the minimum inhibitory concentrations (mcg./ml.) of 1 N-(L-4-amino-2-hydroxybutyryl)-kanamycin A (abbreviated as AHB-KMA) and 1N-([…])-kanamycin B (abbreviated as AHB-KMB) which are known from U.S. Pat. No. 3,781,268 were also determined by the same manner as stated above.

[20] = test system: Shigella flexneri 4b JS 11811; experiment: as above; type: cell-based; details: 4BJS11811, 37° C., 18 hours, read-out: Minimum Inhibitory Concentrations
Experimental: as §1

[21] = test system: Pseudomonas aeruginosa A3; experiment: as above; type: cell-based; details: 37° C., 18 hours, read-out: Minimum Inhibitory Concentrations
Experimental: as §1

[22] = test system: Escherichia coli K-12 ML 1630; experiment: as above; type: cell-based; details: K12ML1630, 37° C., 18 hours, read-out: Minimum Inhibitory Concentrations
Experimental: as §1

[23] = test system: Klebsiella pneumoniae 22 No. 3038; experiment: as above; type: cell-based; details: 37° C., 18 hours, read-out: Minimum Inhibitory Concentrations
Experimental: as §1

[24] = test system: Bacillus subtilis PCI 219; experiment: as above; type: cell-based; details: PCI219, 37° C., 18 hours, read-out: Minimum Inhibitory Concentrations
[25] = test system: Corynebacterium bovis 1810; experiment: as above; type: cell-based; details: read-out: Minimum Inhibitory Concentrations
[26] = test system: Escherichia coli K-12 ML 1410 R81; experiment: as above; type: cell-based; details: 18 h, read-out: Minimum Inhibitory Concentrations

Structure (SMILES)	MIC [2] [µg/mL]	MIC [3] [µg/mL]	MIC [4] [µg/mL]	MIC [5] [µg/mL]	MIC (Escherichia coli K-12) [µg/mL]	MIC (Escherichia coli K-12 R5) [µg/mL]	MIC (Salmonella typhosa T-63) [µg/mL]	MIC [6] [µg/mL]	MIC [7] [µg/mL]	MIC [9] [µg/mL]	MIC (Proteus vulgaris OX 19) [µg/mL]	MIC (Bacillus anthracis) [µg/mL]	MIC [10] [µg/mL]	MIC (Staphylococcus aureus) [µg/mL]	MIC [12] [µg/mL]	MIC [14] [µg/mL]	MIC (Escherichia coli W677) [µg/mL]	MIC [16] [µg/mL]	MIC [18] [µg/mL]	MIC [19] [µg/mL]	also measured
NCC[C@H](O)C(=O)N[C@@H]1C[C@H](N)[C@@H](O[C@H]2O[C@H](CN)[C@@H](O)[C@H](O)[C@H]2N)[C@H](O)[C@H]1O[C@H]1O[C@H](CO)[C@@H](O)[C@H](N)[C@H]1O [AHB-KMB, 1N-(L-4-amino-2-hydroxybutyryl)kanamycin B]																					activity against kanamycin-resistant bacteria [1]: active against a large number of kanamycin-resistant bacteria
CNC[C@@H]1CC[C@@H](N)[C@@H](O[C@H]2[C@H](O)[C@@H](O[C@H]3O[C@H](CO)[C@@H](O)[C@H](N)[C@H]3O)[C@H](NC(=O)[C@@H](O)CCN)C[C@@H]2N)O1 [AHB-MDKB, 1N-(L-4-amino-2-hydroxybutyryl)-6'N-methyl-3',4'-dideoxykanamycin B]	< 0.2	0.78 (≈ 1.38 µM)	1.56 (≈ 2.75 µM)	0.78 (≈ 1.38 µM)	0.78 (≈ 1.38 µM)	1.56 (≈ 2.75 µM)	3.13 (≈ 5.52 µM)	3.13 (≈ 5.52 µM)	1.56 (≈ 2.75 µM)	0.78 (≈ 1.38 µM)	1.56 (≈ 2.75 µM)	< 0.2	< 0.2	< 0.2	25 (≈ 44.1 µM)	0.2 (≈ 0.353 µM)	0.78 (≈ 1.38 µM)	0.78 (≈ 1.38 µM)	0.78 (≈ 1.38 µM)	1.56 (≈ 2.75 µM)	MIC (Sarcina lutea PCI 1001; PCI1001, 18 h): 3.13 µg/mL (≈ 5.52 µM); MIC ([8]; Bacillus cereus, ATCC10702, 18 h): 3.13 µg/mL (≈ 5.52 µM); MIC ([11]; Pseudomonas aeruginosa, NO.12, 18 h): 3.13 µg/mL (≈ 5.52 µM); MIC ([13]; Escherichia coli, JR66/W677, 18 h): 3.13 µg/mL (≈ 5.52 µM); MIC ([15]; Pseudomonas aeruginosa, TI13, 18 h): 6.25 µg/mL (≈ 11 µM); MIC ([17]; Pseudomonas aeruginosa, GN315, 18 h): 6.25 µg/mL (≈ 11 µM); MIC (Escherichia coli NIHJ): 1.56 µg/mL (≈ 2.75 µM); MIC (Shigella sonnei JS 11746): 6.25 µg/mL (≈ 11 µM); MIC [20]: 3.13 µg/mL (≈ 5.52 µM); MIC [21]: 3.13 µg/mL (≈ 5.52 µM); MIC [22]: 0.78 µg/mL (≈ 1.38 µM); MIC [23]: 3.13 µg/mL (≈ 5.52 µM); MIC [24]: < 0.2 µg/mL; MIC ([25]; Corynebacterium bovis, 1810, 18 h): 3.13 µg/mL (≈ 5.52 µM)
CNC[C@@H]1CC[C@@H](N)[C@@H](O[C@H]2[C@H](O)[C@@H](O[C@H]3O[C@H](CO)[C@@H](O)[C@H](N)[C@H]3O)[C@H](NC(=O)[C@@H](O)CCCN)C[C@@H]2N)O1 [AHV-MDKB, 1N-(L-5-amino-2-hydroxyvaleryl)-6'N-methyl-3',4'-dideoxykanamycin B]	< 0.2	0.39 (≈ 0.672 µM)	0.78 (≈ 1.34 µM)	0.78 (≈ 1.34 µM)	0.78 (≈ 1.34 µM)	1.56 (≈ 2.69 µM)	0.78 (≈ 1.34 µM)	3.13 (≈ 5.39 µM)	0.78 (≈ 1.34 µM)	0.39 (≈ 0.672 µM)	0.78 (≈ 1.34 µM)	< 0.2	< 0.2	< 0.2	25 (≈ 43.1 µM)	0.78 (≈ 1.34 µM)	0.78 (≈ 1.34 µM)	0.39 (≈ 0.672 µM)	0.78 (≈ 1.34 µM)	1.56 (≈ 2.69 µM)	MIC (Sarcina lutea PCI 1001; PCI1001, Sarcina lutea PCI 1001, 37° C., 18 hours): 12.5 µg/mL (≈ 21.5 µM); MIC ([8]; ATCC10702, Bacillus cereus ATCC 10702, 37° C., 18 hours): 1.56 µg/mL (≈ 2.69 µM); MIC [26]: 1.56 µg/mL (≈ 2.69 µM); MIC ([11]; Pseudomonas aeruginosa No. 12, 37° C., 18 hours): 25 µg/mL (≈ 43.1 µM); MIC ([13]; Escherichia coli JR66/W677, 37° C., 18 hours): 1.56 µg/mL (≈ 2.69 µM); MIC ([15]; TI13, Pseudomonas aeruginosa TI-13, 37° C., 18 hours): 6.25 µg/mL (≈ 10.8 µM); MIC ([17]; Pseudomonas aeruginosa GN315, 37° C., 18 hours): 12.5 µg/mL (≈ 21.5 µM); MIC (Escherichia coli NIHJ): 0.78 µg/mL (≈ 1.34 µM); MIC (Shigella sonnei JS 11746): 3.13 µg/mL (≈ 5.39 µM); MIC [20]: 3.13 µg/mL (≈ 5.39 µM); MIC [21]: 3.13 µg/mL (≈ 5.39 µM); MIC [22]: 1.56 µg/mL (≈ 2.69 µM); MIC [23]: 3.13 µg/mL (≈ 5.39 µM); MIC [24]: < 0.2 µg/mL; MIC ([25]; Corynebacterium bovis 1810, 37° C., 18 hours): 6.25 µg/mL (≈ 10.8 µM)
